Experimental data published in PMC6147116 (Journal of Enzyme Inhibition and Medicinal Chemistry, 2018).
Like-named read-outs stand apart in the source and are kept apart here.

Columns and labels:
[1] = target: T1, human aromatase (Homo sapiens, UniProt P11511); assay: Aromatase inhibition, in vitro radiosubstrate incubation (testosterone to E2 conversion), human placental microsomes; type: biochemical; conditions: for remaining activity at 10 µM: read-out: Arom Rel.conv. ± SD
T1 construct: from tissue; host or cells: human term placenta, microsomal fraction
T1 sequence (P11511 1-503): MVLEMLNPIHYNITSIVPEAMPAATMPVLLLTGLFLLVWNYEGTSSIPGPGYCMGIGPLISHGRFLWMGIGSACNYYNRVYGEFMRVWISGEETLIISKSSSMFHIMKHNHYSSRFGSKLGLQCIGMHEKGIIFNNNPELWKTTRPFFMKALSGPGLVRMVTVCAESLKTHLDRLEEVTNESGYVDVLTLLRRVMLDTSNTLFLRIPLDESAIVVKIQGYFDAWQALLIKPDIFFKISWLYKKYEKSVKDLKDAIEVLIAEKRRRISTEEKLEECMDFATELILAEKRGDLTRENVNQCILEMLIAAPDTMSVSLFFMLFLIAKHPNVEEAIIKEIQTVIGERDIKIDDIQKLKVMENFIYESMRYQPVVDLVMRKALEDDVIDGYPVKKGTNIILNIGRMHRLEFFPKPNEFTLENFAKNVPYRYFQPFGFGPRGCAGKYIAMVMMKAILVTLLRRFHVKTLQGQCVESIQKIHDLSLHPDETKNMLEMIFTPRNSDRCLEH
Experimental: (§1) Enzyme inhibition studies were performed by in vitro radiosubstrate incubations using human term placenta cytosol and microsomas as enzyme sources. […] Relative conversions compared to non-inhibited controls (100%) were measured in the presence of 10 µM concentration of the test compound. […] Mechanistic and kinetic investigations were performed and inhibitory constants (Ki) were determined for selected compounds.
(§2) Enzymatic incubations were carried out in the HEPES buffer medium at a final volume of 200
(§3) µl. The substrate was added to the incubate in 20 µl of a 25 v/v% propylene glycol in HEPES buffer solution, whereas test compounds were applied in 10 µl of dimethyl sulfoxide solution.
Incubations were performed at 37 °C and terminated by cooling and the addition of organic solvents of the subsequent extraction procedure. Control samples with no inhibitor and blank samples were incubated simultaneously. The radioactivity of the products formed was measured by means of liquid scintillation counting (LSC) and taken as indicator of the […]
In the aromatase assays the microsoma suspension was incubated with appropriate concentration of unlabelled testosterone (2) substrate spiked with [1,2,6,7-3H]testosterone tracer, and in the presence of 0.1 mM NADPH cofactor excess. (In this case, solution of the substrate was prepared with acetonitrile instead of propylene glycol.) Incubation time was 40 min. The incubation mixture was extracted with toluene, then the toluene phase was drained and washed with HEPES buffer. Aromatase products containing phenolic hydroxy group were extracted with 1.2 M sodium hydroxide solution from the toluene extract and the alkaline phase was measured in the LSC. […]
was extracted with toluene. […]
(§4) In the general procedure, incubations were performed as described. Concentrations of the substrates were 1.0 µM, and the test compounds were applied at 10 µM final concentration in the incubate. Relative conversions compared to non-inhibited controls (100%) were determined. The assays were performed in triplicate, and the mean value and the standard deviation (SD) were calculated. […]
(§5) these cases, conversions were measured at 10–15 different concentrations in the appropriate interval between 0.001–50 µM. IC50 results were calculated by using unweighted iterative least squares logistic curve fitting by means of the “absolute IC50 calculation“ function of the GraphPad Prism 4.0 software (GraphPad Software, Inc., San Diego, CA, USA).
Kinetic analyses were performed via measurement of the enzymatic transformation using different fixed substrate concentrations and varied inhibitor concentrations. The Dixon’s linear transformation (1/velocity vs. inhibitor concentration) was applied for evaluation and the inhibition constant (Ki) was determined from abscissa of intersection of the lines of different substrate concentrations. Mechanism of binding was identified according to the […]

[2] = target: T2, 17β-hydroxysteroid dehydrogenase type 1 (17β-HSD1) (Homo sapiens, UniProt P14061); assay: 17β-HSD1 inhibition, in vitro radiosubstrate incubation (E1 to E2), human placental cytosol; Dixon kinetic analysis; type: biochemical; conditions: for IC50: E1 substrate 1.0 µM, NADPH excess; for 17β-HSD1 Rel.conv. ± SD: 10 µM test compound, non-inhibited control 100%, mean ± SD, n = 3
T2 sequence (P14061 1-328): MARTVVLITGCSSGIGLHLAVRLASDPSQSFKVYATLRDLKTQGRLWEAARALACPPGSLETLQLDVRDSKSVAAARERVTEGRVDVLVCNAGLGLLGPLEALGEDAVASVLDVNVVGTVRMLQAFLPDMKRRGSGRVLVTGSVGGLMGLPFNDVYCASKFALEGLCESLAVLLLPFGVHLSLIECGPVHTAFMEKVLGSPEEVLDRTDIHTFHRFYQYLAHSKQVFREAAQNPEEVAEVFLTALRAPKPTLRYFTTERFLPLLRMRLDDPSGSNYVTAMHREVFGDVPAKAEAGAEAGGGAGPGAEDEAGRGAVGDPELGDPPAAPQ
Experimental: as §1
Inhibitors that bind to the steroid site of 17β-HSD1 can bind to both the free enzyme and the binary enzyme–cofactor complex by random kinetic mechanism.
as §2, §3
(§6) Incubations were performed at 37 °C and terminated by cooling and the addition of organic solvents of the subsequent extraction procedure. Control samples with no inhibitor and blank samples were incubated simultaneously. […]
The incubation time was 2.5 min. The product 17β-estradiol (E2, 5) was extracted with ethyl acetate and isolated by a TLC method (details are published in our earlier reference).
as §4, §5
(§7) Kinetic analyses were performed via measurement of the enzymatic transformation using different fixed substrate concentrations and varied inhibitor concentrations. The Dixon’s linear transformation (1/velocity vs. inhibitor concentration) was applied for evaluation and the inhibition constant (Ki) was determined from abscissa of intersection of the lines of different substrate concentrations. Mechanism of binding was identified according to the Dixon’s graphs and the secondary plot of slopes of the Dixon’s lines vs. 1/substrate […]
The inhibitor compounds were preincubated with the appropriate placenta fraction in a volume of 4.0 µl at 37 °C for various time periods (2.5-40 min). Following this procedure, samples were diluted with the incubation medium to 50-fold. Enzyme activity measurements

[3] = target: T3, steroid sulfatase (STS) (Homo sapiens, UniProt P08842); assay: STS inhibition, in vitro radiosubstrate incubation (release of E1 from E1S), human placental microsomes; Dixon kinetic analysis; type: biochemical; conditions: for remaining activity at 10 µM: read-out: STS Rel.conv. ± SD
T3 construct: from tissue; host or cells: human term placenta, microsomal fraction
T3 sequence (P08842 22-583): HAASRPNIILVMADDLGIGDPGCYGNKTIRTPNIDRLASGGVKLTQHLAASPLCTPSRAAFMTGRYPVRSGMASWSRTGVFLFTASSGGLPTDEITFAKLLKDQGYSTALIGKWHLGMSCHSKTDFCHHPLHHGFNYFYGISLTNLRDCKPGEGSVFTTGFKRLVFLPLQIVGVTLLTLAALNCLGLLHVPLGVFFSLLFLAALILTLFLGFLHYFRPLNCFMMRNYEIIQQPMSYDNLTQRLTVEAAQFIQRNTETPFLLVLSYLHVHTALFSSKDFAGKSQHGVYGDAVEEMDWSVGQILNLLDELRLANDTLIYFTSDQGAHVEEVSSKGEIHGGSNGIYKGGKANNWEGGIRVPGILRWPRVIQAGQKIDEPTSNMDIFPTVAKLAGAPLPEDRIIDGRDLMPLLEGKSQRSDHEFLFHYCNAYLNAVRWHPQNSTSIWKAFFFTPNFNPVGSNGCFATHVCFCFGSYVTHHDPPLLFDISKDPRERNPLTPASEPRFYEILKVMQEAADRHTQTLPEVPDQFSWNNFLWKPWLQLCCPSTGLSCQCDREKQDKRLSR
Experimental: as §1
Kinetic analyses of selected compounds 7a and 16c were performed by measurement of enzyme activities using different fixed substrate concentrations and varied inhibitor concentrations.
as §2, §3, §6
The incubation time was 2.5 min. […]
as §4, §5, §7
The inhibitor compounds were preincubated with the appropriate placenta fraction in a volume of 4.0 µl at 37 °C for various time periods (2.5-40 min). Following this procedure, […]

[4] = target: T2, 17β-hydroxysteroid dehydrogenase type 1 (17β-HSD1); conditions: earlier paper of the authors; read-out: 17β-HSD1 IC50 ± SD; cited from earlier work
[5] = 10 µM test compound, non-inhibited control 100%, mean ± SD, n = 3
[6] = E1S substrate 1.0 µM, read-out: STS IC50 ± SD

SMILES	remaining activity at 10 µM [1, 5]	IC50 ([2]; read-out: 17β-HSD1 IC50 ± SD)	remaining activity at 10 µM [3, 5]	IC50 [3, 6]	other results
C[C@]12CCC[C@H]1[C@@H]1CCc3cc(O)ccc3[C@H]1CC2 [compound 13, 17-deoxy-13α-estrone]	95 ± 12%	1100 ± 330 nM	76 ± 5%	–	Ki ([2]; from Dixon plot, cofactor excess): 2000 nM
C[C@@]12CC[C@@H]3c4cc(I)c(O)cc4CC[C@H]3[C@@H]1CCC2=O [10a]	82 ± 10%	–	83 ± 3%	–	IC50 [4]: 590 ± 230 nM
C[C@]12CC[C@@H]3c4ccc(O)c(Br)c4CC[C@H]3[C@@H]1CCC2=O [7b, 4-bromoestrone]	91 ± 6%	300 ± 200 nM	–	890 ± 300 nM	–
C[C@]12CCC[C@H]1[C@@H]1CCc3c(ccc(O)c3Cl)[C@H]1CC2 [15c]	89 ± 1%	4500 ± 2000 nM	–	6300 ± 1800 nM	–
C[C@]12CCC[C@H]1[C@@H]1CCc3c(ccc(O)c3Br)[C@H]1CC2 [15b]	90 ± 8%	11000 ± 4000 nM	–	3700 ± 1200 nM	17β-HSD1 Rel.conv. ± SD [2]: 49 ± 12%
C[C@]12CC[C@@H]3c4cc(Cl)c(O)c(Cl)c4CC[C@H]3[C@@H]1CCC2=O [8c]	–	–	–	–	remaining activity at 10 µM [1]: 82 ± 4%; IC50 ([2]; 17β-HSD1 IC50 ± SD): 590 ± 160 nM; IC50 [3]: 3000 ± 900 nM
C[C@]12CC[C@@H]3c4cc(I)c(O)c(I)c4CC[C@H]3[C@@H]1CCC2=O [8a]	86 ± 6%	–	80 ± 13%	–	17β-HSD1 Rel.conv. ± SD [2]: 55 ± 7%
C[C@@]12CC[C@@H]3c4cc(Cl)c(O)cc4CC[C@H]3[C@@H]1CCC2=O [10c]	106 ± 6%	330 ± 100 nM	57 ± 1%	–	–
C[C@]12CC[C@@H]3c4cc(Br)c(O)c(Br)c4CC[C@H]3[C@@H]1CCC2=O [8b]	81 ± 5%	960 ± 450 nM	–	2100 ± 600 nM	–
C[C@]12CCC[C@H]1[C@@H]1CCc3c(cc(I)c(O)c3I)[C@H]1CC2 [16a]	94 ± 2%	–	59 ± 13%	–	17β-HSD1 Rel.conv. ± SD [2]: 61 ± 7%
C[C@@]12CC[C@@H]3c4cc(Cl)c(O)c(Cl)c4CC[C@H]3[C@@H]1CCC2=O [12c]	–	–	–	–	remaining activity at 10 µM [1]: 101 ± 4%; IC50 ([2]; 17β-HSD1 IC50 ± SD): 2200 ± 600 nM; remaining activity at 10 µM [3]: 70 ± 3%
C[C@]12CCC[C@H]1[C@@H]1CCc3c(cc(Br)c(O)c3Br)[C@H]1CC2 [16b]	–	–	–	–	remaining activity at 10 µM [1]: 82 ± 6%; IC50 ([2]; 17β-HSD1 IC50 ± SD): 4100 ± 2500 nM; IC50 [3]: 7500 ± 2000 nM
C[C@@]12CC[C@@H]3c4ccc(O)c(Cl)c4CC[C@H]3[C@@H]1CCC2=O [11c]	–	–	–	–	remaining activity at 10 µM [1]: 98 ± 3%; IC50 ([2]; 17β-HSD1 IC50 ± SD): 2600 ± 1000 nM; remaining activity at 10 µM [3]: 80 ± 7%
C[C@]12CCC[C@H]1[C@@H]1CCc3cc(O)c(I)cc3[C@H]1CC2 [14a]	89 ± 9%	2900 ± 1600 nM	–	3900 ± 1600 nM	–
C[C@]12CCC[C@H]1[C@@H]1CCc3cc(O)c(Br)cc3[C@H]1CC2 [14b]	97 ± 5%	1300 ± 800 nM	–	4100 ± 1300 nM	–
C[C@]12CCC[C@H]1[C@@H]1CCc3cc(O)c(Cl)cc3[C@H]1CC2 [14c]	88 ± 10%	2600 ± 1300 nM	–	7000 ± 1900 nM	–
C[C@]12CCC[C@H]1[C@@H]1CCc3c(ccc(O)c3I)[C@H]1CC2 [15a]	92 ± 7%	–	–	2700 ± 1300 nM	17β-HSD1 Rel.conv. ± SD [2]: 57 ± 9%
C[C@@]12CC[C@@H]3c4ccc(O)cc4CC[C@H]3[C@@H]1CCC2=O [compound 9, 13α-Estrone]	85 ± 13%	–	96 ± 1%	–	–
C[C@]12CC[C@@H]3c4cc(I)c(O)cc4CC[C@H]3[C@@H]1CCC2=O [6a, 2-Iodoestrone]	66%	64 ± 34 nM	64 ± 3%	–	IC50 ([1]; testosterone substrate 1.0 µM, read-out: Arom IC50 ± SD): > 10000 nM
C[C@]12CC[C@@H]3c4ccc(O)c(Cl)c4CC[C@H]3[C@@H]1CCC2=O [7c]	–	–	–	–	remaining activity at 10 µM [1]: 92 ± 3%; IC50 ([2]; 17β-HSD1 IC50 ± SD): 600 ± 160 nM; IC50 [3]: 1600 ± 300 nM
